Results taken from ChEMBL document CHEMBL5241127, “Design, synthesis and biological evaluation of novel 9-N-substituted-13-alkylberberine derivatives from Chinese medicine as anti-hepatocellular carcinoma agents” (Bioorg Med Chem, 2023).

Tested on: HepG2
Assay: Antiproliferative activity against human HepG2 cells assessed as inhibition of cell growth incubated for 72 hrs by MTT assay
Assay type: functional, cell-based
Settings: HepG2, 72 h

SMILES	IC50 [nM]
CCCCCCc1c2[n+](cc3c(NCCN(C)C)c(OC)ccc13)CCc1cc3c(cc1-2)OCO3	2420
CCCCCCCCCCc1c2[n+](cc3c(NCCN(C)C)c(OC)ccc13)CCc1cc3c(cc1-2)OCO3	1020
CCCCCCCCc1c2[n+](c3c4c(c(OC)ccc14)N(CCO)C=C3)CCc1cc3c(cc1-2)OCO3	2280
CCCCCCCCCCCCc1c2[n+](cc3c(NCCN(C)C)c(OC)ccc13)CCc1cc3c(cc1-2)OCO3	1240
CCCCCCCCCCc1c2[n+](cc3c(NCCO)c(OC)ccc13)CCc1cc3c(cc1-2)OCO3	2030
CCCCCCCCCCCCc1c2[n+](cc3c(NCCO)c(OC)ccc13)CCc1cc3c(cc1-2)OCO3	2310
CCCCCCCCc1c2[n+](cc3c(NCCCN)c(OC)ccc13)CCc1cc3c(cc1-2)OCO3	7180
CCCCCCCCc1c2[n+](cc3c(NCCO)c(OC)ccc13)CCc1cc3c(cc1-2)OCO3	2760
